Test results: patent publication US7939467B2, “4-(3-aminobenzoyl)-1-ethylpyrazoles and their use as herbicides” (Bayer CropScience AG, priority 2007, dated 2011)

Assays:
Assay in all cases: Herbicidal action against harmful plants, greenhouse pot test (comparative tables)
Assay type in all cases: in vivo
[1] = system: Matricaria inodora; details: 320 g a.i./ha; scored 3-4 weeks after treatment; comparative table 1
Text: (§1) Seeds or rhizome pieces of mono- and dicotyledonous harmful plants are placed in sandy loam in pots of a diameter of 9 to 13 cm and covered with soil. The herbicides, formulated as emulsifiable concentrates or dusts, are applied to the surface of the covering soil in the form of aqueous dispersions or suspensions or emulsions at an application rate of 300 to 800 l of water/ha (converted), at various dosages. For further cultivation of the plants, the pots are then kept in a greenhouse under optimum conditions. The visual scoring of the damage to the harmful plants is carried out 3-4 weeks after the treatment. As shown by the results of these comparative tables, the selected compounds according to the invention have better herbicidal activity against a broad spectrum of economically important mono- and dicotyledonous harmful plants than the compounds disclosed in the prior art.
(§2) Seeds of mono- and dicotyledonous harmful plants are placed in sandy loam in cardboard pots, covered with soil and grown in the greenhouse under good growth conditions. Two to three weeks after sowing, the test plants are treated at the three-leaf stage. The compounds according to the invention, which are formulated as wettable powders or as emulsion concentrates, are sprayed at an application rate of 600 to 800 l of water/ha (converted) in a dosage stated in tables 1 to 5 onto the surface of the green plant parts. After the test plants have been left to stand in the greenhouse for 3 to 4 weeks under optimum growth conditions, the action of the compounds according to the invention is scored in comparison to compounds disclosed in the prior art. As shown by the results of these comparison tables, the selected compounds according to the invention have better herbicidal activity against a broad spectrum of economically important mono- and dicotyledonous harmful plants than the compounds disclosed in the prior art.

[2] = system: Polygonum convolvulus; details: scored 3-4 weeks after treatment
Text: as §1, §2

[3] = system: Viola tricolor; details: 320 g a.i./ha; scored 3-4 weeks after treatment; comparative table 1
Text: as §1, §2

[4] = system: Echinochloa crus galli; details: 80 g a.i./ha; scored 3-4 weeks after treatment; comparative table 2
Text: as §1, §2

[5] = system: Setaria viridis; details: scored 3-4 weeks after treatment
Text: as §1, §2

[6] = system: Veronica persica; details: scored 3-4 weeks after treatment
Text: as §1, §2

[7] = 320 g a.i./ha, comparative table 1
[8] = 80 g a.i./ha, comparative table 2
[9] = 320 g a.i./ha, comparative table 3

## CCOCCNc1c(S(C)(=O)=O)ccc(C(=O)c2cnn(CC)c2O)c1C
[1]
  Activity against harmful plants MATIN: 90%
[2]; [7]
  Activity against harmful plants POLCO: 70%
[3]
  Activity against harmful plants VIOTR: 90%

## CCOCCNc1c(S(C)(=O)=O)ccc(C(=O)c2cnn(CC)c2O)c1Cl
[1]
  Activity against harmful plants MATIN: 0%
[2]; [7]
  Activity against harmful plants POLCO: 0%
[3]
  Activity against harmful plants VIOTR: 70%

## CCn1ncc(C(=O)c2ccc(S(C)(=O)=O)c(N(C)CCCOC)c2C)c1O
[4]
  Activity against harmful plants ECHCG: 90%
[2]; [8]
  Activity against harmful plants POLCO: 80%
[5]; [8]
  Activity against harmful plants SETVI: 90%
[6]; [8]
  Activity against harmful plants VERPE: 90%

## CCn1ncc(C(=O)c2ccc(S(C)(=O)=O)c(N(C)CCCOC)c2Cl)c1O
[4]
  Activity against harmful plants ECHCG: 40%
[2]; [8]
  Activity against harmful plants POLCO: 30%
[5]; [8]
  Activity against harmful plants SETVI: 0%
[6]; [8]
  Activity against harmful plants VERPE: 60%

## CCn1ncc(C(=O)c2ccc(S(C)(=O)=O)c(NCC3CC3)c2C)c1O
[5]; [9]
  Activity against harmful plants SETVI: 100%
[6]; [9]
  Activity against harmful plants VERPE: 90%

## CCn1ncc(C(=O)c2ccc(S(C)(=O)=O)c(NCC3CC3)c2Cl)c1O
[5]; [9]
  Activity against harmful plants SETVI: 80%
[6]; [9]
  Activity against harmful plants VERPE: 70%
